From US20250099455A1, “TREATMENT FOR CONGESTIVE HEART FAILURE” (FibroGen, Inc., priority 2022, published 2025)
“Also recorded” adds a separate entry of the source.

Experiments:
[1] = system: congestive heart failure following myocardial ischemia; test: Acute myocardial ischemia induced HF, dose response / MED; type: in vivo, rat
Description: • Male Sprague Dawley rats • Ligation of left coronary artery for 30 minutes followed by reperfusion • Post-ligation recovery for 28 days • Cardiac function 28 days after ischemia-reperfusion using a Millar pressure-volume catheter inserted in the left ventricle via the carotid artery • Record pressure-volume loops over several cardiac cycles and derived cardiac function parameters Dose response with the compound of Formula I on cardiac function in congestive heart failure (CHF) was studied by inducing CHF following myocardial ischemia for the determination of Minimum Effective Dose (MED) 2 mg/kg, as shown in FIGS. 10A and 10B.

global ischemia = test: Acute cardioprotection: left ventricular function and coronary flow after global ischemia
[2] = system: congestive heart failure subsequent to myocardial infarction; test: Rat CHF subsequent to myocardial infarction, every other day dosing (Example 1); type: in vivo
Description: The effect of the compound of Formula I on cardiac function in congestive heart failure (CHF) was studied by inducing CHF subsequent to myocardial infarction (MI). Three groups of rats (n=12) were subjected to MI by 30 minute ligation of the left coronary artery followed by reperfusion. In a sham group, rats underwent a similar surgical procedure except that the left coronary artery was not occluded. Treatment with the compound of Formula I was initiated 2 days after reperfusion. In the MI groups, rats were dosed orally every other day with vehicle, 6 mg/kg or 20 mg/kg compound from day 2 to day 26 post MI. In the sham group, rats were dosed with vehicle on the same schedule. At 28 days post-MI, cardiac function, heart weight, and complete blood count (CBC) were measured. Histomorphometric analysis was performed on cardiac sections to quantify collagen deposition with picrosirius red staining (PSR), remodeling with hematoxylin and eosin staining and blood vessel number with immunohistochemistry for smooth muscle α-actin. • Male Sprague Dawley rats • Ligation of left coronary artery for 30 minutes followed by reperfusion • Post-ligation recovery for 28 days • Cardiac function 28 days after ischemia-reperfusion using a Millar pressure-volume catheter inserted in the left ventricle via the carotid artery • Record pressure-volume loops over several cardiac cycles and derived cardiac function parameters

[3] = system: myocardial ischemia-induced heart failure (HFrEF); test: Rat model of ischemic HFrEF, Formula I and empagliflozin alone and in combination; type: in vivo
Description: • Male Sprague Dawley rats • Ligation of left coronary artery for 30 minutes followed by reperfusion • Post-ligation recovery for 28 days • Cardiac function 28 days after ischemia-reperfusion using a Millar pressure-volume catheter inserted in the left ventricle via the carotid artery • Record pressure-volume loops over several cardiac cycles and derived cardiac function parameters A) Rat Model of Ischemic Heart Failure with Reduced Ejection Fraction (HFrEF)

PHD1 = PHD1 (Homo sapiens (Human), UniProt Q96KS0); test: HIF-PH assay (14CO2 capture), PHD1; type: biochemical
PHD1, sequence (Q96KS0 whole entry, species assumed): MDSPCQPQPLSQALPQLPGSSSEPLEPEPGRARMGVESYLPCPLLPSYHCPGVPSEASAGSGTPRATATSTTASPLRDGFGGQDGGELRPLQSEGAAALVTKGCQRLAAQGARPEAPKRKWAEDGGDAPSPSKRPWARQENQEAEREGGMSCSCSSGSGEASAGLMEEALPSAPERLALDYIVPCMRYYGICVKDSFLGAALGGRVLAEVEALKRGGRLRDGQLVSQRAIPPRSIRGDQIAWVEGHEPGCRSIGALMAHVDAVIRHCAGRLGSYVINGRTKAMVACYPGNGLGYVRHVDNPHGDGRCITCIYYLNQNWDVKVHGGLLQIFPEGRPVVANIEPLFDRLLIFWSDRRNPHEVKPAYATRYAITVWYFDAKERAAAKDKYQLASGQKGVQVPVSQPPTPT
Text: The selectivity profile for the compound of Formula I can be determined using, for example, any assay familiar and commonly accessible to those skilled in the art, e.g., the following HIF-PH assay.
Ketoglutaric acid α-[1-^14C]-sodium salt, alpha-ketoglutaric acid sodium salt, and HPLC purified peptide may be obtained from commercial sources, e.g., Perkin-Elmer (Wellesley MA), Sigma-Aldrich, and SynPep Corp. (Dublin CA), respectively. Peptides for use in the assay may be fragments of HIFα as described above or as disclosed in International Publication WO 2005/118836, incorporated by reference herein. HIF-PH, e.g., PHD1 (EGLN2) or PHD2 (EGLN1), can be expressed in, e.g., insect Hi5 cells, and partially purified, e.g., through a SP ion exchange chromatography column. Enzyme activity is determined by capturing ^14CO2 using an assay described by Kivirikko and Myllyla (1982, Methods Enzymol. 82:245-304). Assay reactions contain 50 mM HEPES (pH 7.4), 100 μM α-ketoglutaric acid sodium salt, 0.30 μCi/mL ketoglutaric acid α-[1-^14C]-sodium salt, 40 μM FeSO4, 1 mM ascorbate, 1541.8 units/mL Catalase, with or without 50 µM peptide substrate and various concentrations of compound of the invention. Reactions are initiated by addition of HIF-PH enzyme. IC50 (compound concentration for 50% inhibition of enzyme activity) of the compounds for each enzyme can be determined.
The peptide-dependent percent turnover is calculated by subtracting percent turnover in the absence of peptide from percent turnover in the presence of substrate peptide. Percent inhibition and IC50 are calculated using peptide-dependent percent turnover at given inhibitor concentrations. Calculation of IC50 values for each inhibitor is conducted using GraFit software (Erithacus Software Ltd., Surrey UK). IC50 of test compound for PHD1 and for PHD2 and/or PHD3 can be readily determined using the above method, and used to assess the selectivity of the compound for inhibition of PHD1.

[4] = system: congestive heart failure subsequent to myocardial infarction; test: Acute myocardial ischemia induced HF, duration of administration (regimens); type: in vivo, rat
[5] = 0.2, 0.6, 2 mg/kg daily, 4 weeks, effect at 2 mg/kg
[6] = 6 or 20 mg/kg oral QOD day 2-26 post MI, 28 days post-MI
[7] = 6 or 20 mg/kg oral QOD day 2-26 post MI, 28 days post-MI, vs vehicle
[8] = histomorphometry of left ventricle, QOD dosing, 28 days
[9] = 20 mg/kg daily for 7, 14 or 28 days

Question: Which cardiac hypertrophy [1, 5] does the source give for `CC(C)(CC(=O)O)NC(=O)c1nc(C#N)c2cc(Oc3ccccc3)ccc2c1O` [Formula I, 3-[(1-cyano-4-hydroxy-7-phenoxy-isoquinoline-3-carbonyl)-amino]-3-methyl-butyric acid] here?
Answer: Significant reduction in cardiac

Question: What about the diastolic function [1, 5] of the same compound?
Answer: hypertrophy and improved systolic

Question: And the systolic function [1, 5]?
Answer: hypertrophy and improved systolic

Question: And the “Minimum Effective Dose (MED)” value ([1]; cardiac function in CHF following myocardial ischemia)?
Answer: 2 mg/kg

Question: What about the coronary flow (global ischemia) of the same compound?
Answer: improved

Question: What about the left ventricular function (global ischemia) of the same compound?
Answer: improved

Question: What about the “left ventricular function (LVDP)” value (global ischemia) of the same compound?
Answer: improved

Question: What about the “left ventricular function (LVEP)” value (global ischemia) of the same compound?
Answer: improved

Question: What about the collagen deposition ([2]; 6, 20 mg/kg QOD, 4 weeks) of the same compound?
Answer: reduced; also recorded: reduction in cardiac hypertrophy

Question: And the ESPVR slope [2, 6]?
Answer: normalized

Question: What about the circulating hemoglobin level [2, 6] of the same compound?
Answer: did not produce a concomitant significant increase; also recorded: without any concomitant rise

Question: What about the “other CBC parameters” value [2, 6] of the same compound?
Answer: did not produce a concomitant significant increase in circulating hemoglobin level or have a significant effect

Question: What about the arterial elastance [2, 7] of the same compound?
Answer: significantly improved

Question: What about the cardiac hypertrophy [2, 7] of the same compound?
Answer: significantly improved; also recorded: significant improvement; also recorded: reduced; also recorded: reduction in cardiac hypertrophy

Question: What about the cardiac output [2, 7] of the same compound?
Answer: significantly improved; also recorded: significant improvement

Question: What about the ejection fraction [2, 7] of the same compound?
Answer: significantly improved; also recorded: significant improvement; also recorded: improved at both doses)

Question: What about the end-diastolic pressure [2, 7] of the same compound?
Answer: significantly improved

Question: And the end-systolic pressure [2, 7]?
Answer: significantly improved

Question: And the end-systolic volume [2, 7]?
Answer: significantly improved; also recorded: significant improvement

Question: And the relaxation time [2, 7]?
Answer: significantly improved; also recorded: significant improvement

Question: And the stroke volume [2, 7]?
Answer: significantly improved; also recorded: significant improvement

Question: And the stroke work [2, 7]?
Answer: significantly improved; also recorded: significant improvement

Question: What about the cardiac contractility ([2]; every day or every other day for 28 days) of the same compound?
Answer: significant improvement

Question: What about the “hypervascularization in the peri-infarct area” value [2, 8] of the same compound?
Answer: significant reduction

Question: And the “left ventricular wall thinning / wall thickness” value [2, 8]?
Answer: prevention of ventricular wall thinning; also recorded: preserved

Question: What about the “improvement in ejection fraction” value [3] of the same compound?
Answer: ~30%

Question: And the “improvement in end systolic volume” value [3]?
Answer: ~30%

Question: And the IC50 (PHD1; Table 1)?
Answer: 0.91 µM

Question: And the IC50 (PHD1; additional experiment, Table 1A)?
Answer: 0.7 µM

Question: What about the PHD2/PHD1 (PHD1; ratio IC50 PHD2/IC50 PHD1, additional experiment, Table 1A) of the same compound?
Answer: 24

Question: What about the collagen deposition [4, 9] of the same compound?
Answer: All regimens reduced collagen

Question: What about the diastolic function [4, 9] of the same compound?
Answer: 14 and 28 days regimens improved

Question: What about the systolic function [4, 9] of the same compound?
Answer: 14 and 28 days regimens improved

Question: And the cardiac hypertrophy ([4]; 20 mg/kg daily, 14 and 28 days regimens)?
Answer: reduced cardiac hypertrophy
